We go through one molecule from article PMC11428593 (Antibiotics, 2024).

Assay [1] relates to S. aureus strain USA300LAC biofilm. In words: Inhibition of biofilm formation (crystal violet). The format is cell-based, Staphylococcus aureus. The protocol:
(§1) The establishment of a bacterial biofilm usually begins with pathogen attachment to biotic and abiotic surfaces, and S. aureus is notorious for its ability to form biofilms on surfaces, such as implants and catheters, which presents a unique treatment challenge.
(§2) Overnight cultures of S. aureus strain USA300LAC were diluted into fresh TSB to an OD600nm = 0.001 and incubated aerobically at 37 °C until the mid-log phase. (A) To detect effects on biofilm formation, cultures were diluted to an OD600nm = 0.0001 in the presence and absence of JC-01-074 and vancomycin at concentrations of 0.5–4× MIC, respectively. (B) To detect effects on biofilm eradication, cultures were diluted to an OD600nm = 0.0001 and incubated under static conditions for 24 h, after which planktonic cells were removed, and the preformed biofilms were washed twice with PBS. […] Biofilm mass was quantified after 20 h via crystal violet staining. One-way ANOVA, Dunnett’s multiple-comparison test (* p < 0.05, ** p < 0.01); (n = 3, ±S.D.).
The overnight USA300LAC cultures were diluted 1000-fold into the fresh TSB media and incubated under shaking conditions at 37 °C until the mid-log phase. The cultures were subsequently diluted to approximately 4 × 10^6 CFU/mL and dispended into 96-well polystyrene plates (Alkali Scientific, Fort Lauderdale, FL, USA) containing DMSO (control), vancomycin (0.5–4× MIC), or the indicated alkyl pyridinol compounds (0.5–4× MIC) and sealed with a breath-easy membrane (Fisherbrand, Waltham, MA, USA). The peripheral wells were filled with PBS to limit evaporation. The plates were incubated without agitation at 37 °C for 24 h, following which the planktonic cells were removed. The biofilms were washed twice with PBS, stained with 0.1% crystal violet (CV) for 15 min, and washed again twice with PBS to remove the unbound CV dye. CV bound to biofilm cells was extracted with 30% (v/v) glacial acetic acid, and the O.D.595nm was determined.

In assay [2] the test system is S. aureus strain USA300LAC established biofilm. In words: Biofilm eradication assay (crystal violet). The format is cell-based, Staphylococcus aureus. The note with it: at or below 4× MIC, 24 h, in words. As for the experimental part: as §1, §2
The overnight USA300LAC cultures were diluted 1000-fold into the TSB media and incubated under shaking conditions at 37 °C until the mid-log phase. […] After 24 h of incubation, biofilm eradication was assessed via CV staining at 595 nm in a Tecan 200 Infinite Pro microplate reader (Tecan, Morgan Hill, CA, USA).

“Also recorded” adds a separate entry of the source.

Regarding `CCCCCCCCCC#Cc1cccc(O)n1` [JC-01-074], in assay [1] (0.5–4× MIC, dose-dependent), the “reduction of biofilm formation” value is given as 60–70%. Further, the “inhibition of biofilm formation” value in assay [1] (up to 4× MIC, in words) is “very potent in inhibiting their formation”. In addition, in assay [2], the “eradication of established biofilms” value is “has no effect once biofilms have been established; also recorded: no significant effects on the already established biofilms”.
